Source: patent US6702987B1, “Bioactive porous partition members” (Dade Behring Inc., priority 1994, dated 2004)

Legend:
[1] = Storage stability of agent incorporated in porous partition member and dried; format: physicochemical
Procedure: ADP is unstable in aqueous solution having a useful life of only about 4 hours.
Epinephrine is sensitive to aspirin induced defects in platelets.
The concentration of ADP solution used for incorporation into the membrane was 50 mg/ml, and that of the epinephrine solution was 10 mg/ml.
A strip of membrane was spot-coated with 1 μL of ADP or epinephrine solution. Therefore, each membrane placed in the Test Cartridge contained 50 μg of ADP or 10 μg of epinephrine. The membrane was then spot-coated with 1 μL of fibrillar Type I collagen suspension from horse tendon available from Nycomed AG.
Spot-coating involved putting spots of liquid agent on a strip of membrane. After spot-coating, the membrane was placed in a forced air drying chamber for 25 minutes for drying of the ADP or epinephrine, and formation of a collagen film on the coated areas. Once dried, an aperture was punched in the center of the spot and a membrane disk was cut from the membrane strip.

[2] = cited from earlier work

SMILES	stable when incorporated in a porous partition member ([1]; incorporated in porous partition member, dried, stored at about 4° C. under hermetically sealed conditions)	useful life in aqueous solution ([2]; aqueous solution)	stability when incorporated in a porous partition member and dried ([1]; incorporated in porous partition member and dried)	stability in solution ([2]; in solution)
Nc1ncnc2c1ncn2[C@@H]1O[C@H](COP(=O)(O)OP(=O)(O)O)[C@@H](O)[C@H]1O [ADP, adenosine 5′-diphosphate]	about one and one-half	about 4 hours		
CNC[C@H](O)c1ccc(O)c(O)c1 [epinephrine]			good stability	unstable
